The results in this text go back to patent US20200140444A1, “INHIBITORS OF MUTANT ISOCITRATE DEHYDROGENASES AND COMPOSITIONS AND METHODS THEREOF” (IsoCure Biosciences Inc., priority 2017, published 2020).

One experiment has as its target IDH1 (R132C) (Homo sapiens, UniProt O75874, R132C). Description: IDH enzyme assay, NADPH production or depletion measured by diaphorase/resazurin coupled detection. In kind it is biochemical. The note with it: read-out: Compound IC50 (M) IDH1 (R132C). On the procedure: (§1) Compounds were tested against 2 enzymes.
(§2) The production or depletion of NADPH by IDH enzymes was measured by diaphorase/resazurin coupled detection.
A general note: The colour change of resazurin is a common sign of viable cells or microbes.

Another experiment has as its target IDH1 (R132H) (Homo sapiens, UniProt O75874, R132H). The description is as above. Format: biochemical. The note with it: read-out: Compound IC50 (M) IDH1 (R132H). As for the experimental part: as §1, §2

The structures appear in SMILES notation.

Chain of IDH1 (R132H) (O75874 whole entry R132H): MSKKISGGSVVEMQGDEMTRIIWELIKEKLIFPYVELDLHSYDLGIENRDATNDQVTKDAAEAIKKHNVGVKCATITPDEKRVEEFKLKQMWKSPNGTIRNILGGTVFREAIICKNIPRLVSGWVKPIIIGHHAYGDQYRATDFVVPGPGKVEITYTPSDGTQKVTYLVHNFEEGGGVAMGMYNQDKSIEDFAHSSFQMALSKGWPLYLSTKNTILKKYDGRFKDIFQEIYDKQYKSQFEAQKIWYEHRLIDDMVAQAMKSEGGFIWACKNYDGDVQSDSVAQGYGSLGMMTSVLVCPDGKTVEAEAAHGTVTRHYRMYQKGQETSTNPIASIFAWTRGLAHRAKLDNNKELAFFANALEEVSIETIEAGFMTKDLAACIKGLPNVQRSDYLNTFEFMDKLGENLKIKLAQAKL
Chain of IDH1 (R132C) (O75874 whole entry R132C): as the sequence (O75874 whole entry R132H) above, with H132C counted along it

Turning to `Cc1cccc(NC(=O)c2nc(Cc3ccccc3)n3c2CN(C(=O)c2ccc[nH]2)CC3)c1` [Compound 5-1, 3-benzyl-7-(1H-pyrrole-2-carbonyl)-N-(m-tolyl)-5,6,7,8-tetrahydroimidazo[1,5-a]pyrazine-1-carboxamide], the results for the IC50 at IDH1 (R132C) and on IDH1 (R132H) were 3.1e-06 M and 5.36e-07 M, respectively.
Regarding `C[C@H](O)c1cccc(NC(=O)c2nc(Cc3ccccc3)n3c2CN(C(=O)c2ccc[nH]2)CC3)c1` [Compound 5-2, (S)-3-benzyl-N-(3-(1-hydroxyethyl)phenyl)-7-(1H-pyrrole-2-carbonyl)-5,6,7,8-tetrahydroimidazo[1,5-a]pyrazine-1-carboxamide], at IDH1 (R132H), the IC50 (commonly the concentration that gives 50% inhibition) stood at 1.64e-06 M.
